According to US20240252477A1, “NLRP3 INFLAMMASOME-INHIBITING COMPOUNDS AND THE USE THEREOF” (UNIVERSITA' DEGLI STUDI DI TORINO (60%), priority 2021, published 2024):

Assays:
NLRP3 inflammasome = target: T1, NLRP3 inflammasome (Homo sapiens, UniProt Q96P20); assay: NLRP3-dependent pyroptosis (LDH release) in PMA-differentiated THP-1 cells stimulated with LPS/ATP; assay type: cell-based; conditions: compounds at 10 μM for 1 hour; differentiated THP-1, LPS 10 μg/mL 4 hours, ATP 1.5 hours; read-out: Pyroptosis inhibition (% ± SEM)
T1 construct: The THP-1 cells were differentiated into macrophages by treating them with PMA 50 nM; endogenous in cells; host or cells: THP-1 (human monocytic leukaemia line), PMA-differentiated, primed with LPS, triggered with ATP
Experimental: THP-1 cells, a monocytic human cell line derived from the peripheral blood of a patient suffering from acute monocytic leukaemia (www.atcc.org), were cultured in RPMI 1640 medium (Aurogene, Rome, Italy), with the addition of foetal bovine serum (10%, Aurogene), L-glutamine (2 mM, Aurogene), penicillin (100 IU/ml, Aurogene) and streptomycin ([…], Aurogene). The medium was changed every 2-3 days, and the cells were maintained in an incubator at 37° C., with 5% CO2, and with suitable humidity.
The cells were seeded in 48-well plates (90.000 cells/well), and differentiated with phorbol 12-myristate 13-acetate (PMA—50 nM, 24 hours; Sigma-Aldrich). On the next day, the differentiated THP-1s were washed twice with the balanced saline solution phosphate-buffered saline (PBS), and stimulated with lipopolysaccharide (LPS) (10 μg/mL, 4 hours; Sigma-Aldrich), prepared in serum-free medium. After 4 hours the cells were incubated with the compounds at the concentration of 10 μM for 1 hour, operating in triplicate; INF176 and INF177 were tested at three different concentrations: […]. Finally, the cells were stimulated with ATP 5 mm for 1.5 hours. The supernatants were then harvested for the subsequent analyses.
LDH release into the supernatant obtained as described above was quantified using the CytoTox 96 nonradioactive cytotoxicity assay (Promega Corporation, Madison, […], USA), a colorimetric assay wherein LDH activity is measured with an NADH-dependent enzymatic reaction:
Briefly, an equal volume of CytoTox Reagent was added to the supernatant and, after 30 minutes' incubation, the reaction was stopped by adding the stop solution. The formazan concentration was determined by measuring absorbance, using a microplate reader (Victor X4—EnSight, PerkinElmer, Waltham, MA, USA), at λ=490 nm. Cell death was expressed according to the manufacturer's instructions.
The compound INF176 was tested to measure its ability to inhibit NLRP3-dependent cell pyroptosis in human macrophages, using the experimental protocol previously published [Cocco et al. 2017].
The THP-1 cells were differentiated into macrophages by treating them with PMA 50 nM (24 hours) and then with LPS (10 μg/mL) for 4 hours. The cells were treated with the compound (10 μM) for 1 hour. Pyroptosis was induced by treatment with ATP 5 mm. After 90 minutes, cell death was evaluated by measuring the LDH level in the cell supernatant using the CytoTox 96 Non-Radioactive Cytotoxicity Assay (Promega Corporation, Madison, […], USA).

Cytotoxicity (MTT assay) = assay type: cell-based, human; conditions: human; THP-1 cells, 72 hours' incubation
Experimental: The THP-1 cells were seeded in a 96-well plate (15.000 cells/well) and incubated with the test compounds at four different concentrations (0.1, 1, 10 and 100 μM), operating in triplicate. The cells were placed in an incubator at 37° C., with 5% CO2, and cell viability was measured after 72 hours' incubation, using the MTT assay. This is a colorimetric assay, based on conversion of water-soluble 3-(4,5-dimethylthiazol-2-yl)-2,5-diphenyltetrazolium bromide (MTT; Sigma-Aldrich) to a violet-coloured insoluble formazan, by the mitochondrial dehydrogenase present in the live cells. The formazan is solubilised in acidified isopropanol, and the concentration is determined by measuring absorbance with a microplate reader (Victor X4—Ensight, PerkinElmer) at λ=570 nm. Viability was expressed as a percentage of the viability of the control cells, which were either untreated or treated with the carrier. The IC50 was calculated with the Graph Pad Prism software.

T1 sequence (Q96P20 whole entry): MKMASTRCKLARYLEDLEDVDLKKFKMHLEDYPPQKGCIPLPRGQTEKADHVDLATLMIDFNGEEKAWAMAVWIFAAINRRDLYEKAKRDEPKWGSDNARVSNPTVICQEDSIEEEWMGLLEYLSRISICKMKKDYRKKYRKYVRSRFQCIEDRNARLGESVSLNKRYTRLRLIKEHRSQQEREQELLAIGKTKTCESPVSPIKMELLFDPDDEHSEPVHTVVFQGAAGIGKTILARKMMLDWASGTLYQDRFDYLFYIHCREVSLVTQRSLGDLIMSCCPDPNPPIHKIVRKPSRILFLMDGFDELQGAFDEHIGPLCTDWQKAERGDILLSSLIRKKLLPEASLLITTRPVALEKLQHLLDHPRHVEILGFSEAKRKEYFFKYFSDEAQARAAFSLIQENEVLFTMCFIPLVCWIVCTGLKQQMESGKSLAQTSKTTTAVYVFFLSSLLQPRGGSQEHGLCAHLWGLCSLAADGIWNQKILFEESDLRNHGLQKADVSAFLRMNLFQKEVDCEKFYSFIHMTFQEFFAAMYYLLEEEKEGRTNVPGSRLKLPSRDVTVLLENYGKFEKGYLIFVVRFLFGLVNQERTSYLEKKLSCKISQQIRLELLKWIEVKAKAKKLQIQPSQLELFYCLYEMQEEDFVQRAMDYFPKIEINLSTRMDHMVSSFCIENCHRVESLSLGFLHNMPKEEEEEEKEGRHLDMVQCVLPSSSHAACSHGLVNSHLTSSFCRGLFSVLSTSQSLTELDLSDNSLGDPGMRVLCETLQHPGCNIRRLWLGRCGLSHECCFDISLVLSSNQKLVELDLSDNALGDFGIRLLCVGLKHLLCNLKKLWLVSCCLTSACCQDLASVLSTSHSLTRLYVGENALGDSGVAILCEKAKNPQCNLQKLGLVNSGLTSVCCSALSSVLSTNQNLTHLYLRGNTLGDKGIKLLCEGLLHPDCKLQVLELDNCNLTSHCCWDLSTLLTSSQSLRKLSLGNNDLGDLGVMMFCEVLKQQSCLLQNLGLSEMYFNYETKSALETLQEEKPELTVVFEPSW

| inhibition at 10 µM (NLRP3 inflammasome) | SMILES | IC50 at 72 h (Cytotoxicity (MTT assay)) |
| --- | --- | --- |
| 26.9 ± 4.9% | CCOC(=O)[C@H](CSc1ccccc1)[C@H](O)c1ccccc1Cl (mixture of isomers) [INF38a, Ethyl(2S,3S)-3-(2-chlorophenyl)-3-hydroxy-2-(phenylsulphanylmethyl)-propanoate and ethyl(2S,3R)-3-(2-chlorophenyl)-3-hydroxy-2-(phenylsulphanylmethyl)propanoate] | > 100 µM |
| 23.5 ± 4.2% | CCOC(=O)[C@@H](CSc1ccccc1)[C@H](O)c1ccccc1Cl (mixture of isomers) [INF38s, Ethyl(2S,3S)-3-(2-chlorophenyl)-3-hydroxy-2-(phenylsulphanylmethyl)-propanoate and ethyl(2R,3R)-3-(2-chlorophenyl)-3-hydroxy-2-(phenylsulphanylmethyl)propanoate] | > 100 µM |
| 32.2 ± 5.7% | CCOC(=O)[C@@H](CN1CCCC1)[C@H](O)c1ccccc1Cl (racemic) [INF37 syn] |  |
| < 10% | CCOC(=O)[C@@H](C[S+]([O-])c1ccccc1)[C@H](O)c1ccccc1Cl (mixture of isomers) [INF44, ethyl 3-(2-chlorophenyl)-3-hydroxy-2-((phenylsulphinyl)methyl)propanoate] | > 100 µM |
|  | CCOC(=O)[C@H]1CCCN(C(=O)[C@@H](CSc2ccccc2)Cc2ccccc2Cl)C1 (racemic) [INF184+INF185, ethyl 1-(2-(2-chlorobenzyl)-3-(phenylthio)propanoyl)piperidine-3-carboxylate] | 75.4 ± 2.6 µM |
| < 10% | CCOC(=O)[C@@H]1CCCN(C(=O)[C@@H](CSc2ccccc2)Cc2ccccc2Cl)C1 (racemic) [INF185, ethyl 1-(2-(2-chlorobenzyl)-3-(phenylthio)propanoyl)piperidine-3-carboxylate] |  |
| 21.1 ± 2.9% | CCOC(=O)[C@H](CN1CCCC1)[C@H](O)c1ccccc1Cl (stereo in doubt) [INF37 anti] |  |
| 45.8 ± 6.7% | CCOC(=O)[C@@H](CS(=O)(=O)c1ccccc1)[C@H](O)c1ccccc1Cl (stereo in doubt) [INF45, ethyl 3-(2-chlorophenyl)-3-hydroxy-2-((phenylsulphonyl)methyl)propanoate] | > 100 µM |
|  | CCOC(=O)C(CN1CCCC1)C(O)c1ccccc1Cl (stereo not drawn) [INF37 (syn), ethyl 3-(2-chlorophenyl)-3-hydroxy-2-(pyrrolidin-1-ylmethyl)propanoate] | > 100 µM |
| 69.1 ± 2.2% | CCOC(=O)/C(=C/c1ccccc1Cl)CSc1ccccc1 [INF42, ethyl (Z)-3-(2-chlorophenyl)-2-((phenylthio)methyl)acrylate] | > 100 µM |
| 51 ± 5.6% | CCOC(=O)C(CSc1ccccc1)Cc1ccccc1Cl (centres unmarked) [INF43, ethyl 2-(2-chlorobenzyl)-3-(phenylthio)propanoate] | > 100 µM |
| 33.6 ± 1.2% | CCOC(=O)C(Cc1ccccc1Cl)C[S+]([O-])c1ccccc1 (centres unmarked) [INF48, ethyl 2-(2-chlorobenzyl)-3-(phenylsulphinyl)propanoate] | > 35.1 µM |
| 50.6 ± 5.8% | CCOC(=O)C(Cc1ccccc1Cl)CS(=O)(=O)c1ccccc1 (centres unmarked) [INF49, ethyl 2-(2-chlorobenzyl)-3-(phenylsulphonyl)-propanoate] | > 100 µM |
| 41.1 ± 2.5% | CCOC(=O)/C(=C/c1ccccc1Cl)C[S+]([O-])c1ccccc1 (centres unmarked) [INF50, (Z)-ethyl 3-(2-chlorophenyl)-2-((phenylsulphinyl)methyl)acrylate] | 9.7 ± 0.2 µM |
| 38.9 ± 4.5% | CCOC(=O)/C(=C/c1ccccc1Cl)CS(=O)(=O)c1ccccc1 [INF51, ethyl (Z)-3-(2-chlorophenyl)-2-((phenylsulphonyl)methyl)acrylate] | 20.1 ± 14.3 µM |
| 41.6 ± 3.9% | CCOC(=O)/C(=C/c1ccccc1Cl)CSC1CCCCC1 [INF56, (Z)-ethyl 3-(2-chlorophenyl)-2-((cyclohexylthio)methyl)acrylate] | > 100 µM |
| 34.5 ± 0.3% | CCOC(=O)/C(=C/c1ccccc1Cl)COc1ccccc1 [INF57, (E)-ethyl 3-(2-chlorophenyl)-2-(phenoxymethyl)acrylate] | > 100 µM |
| 41.7 ± 5.2% | CCOC(=O)C(Cc1ccccc1Cl)CN1CCCC1 (centres unmarked) [INF61, ethyl 2-(2-chlorobenzyl)-3-(pyrrolidine-1-yl)propanoate] | > 100 µM |
| 19 ± 4.1% | CCCNC(=O)/C(=C/c1ccccc1Cl)CSc1ccccc1 [INF82, (Z)-3-(2-chlorophenyl)-2-((phenylthio)methyl)-N-propylacrylamide] | 63.3 ± 1.3 µM |
| 21.3 ± 4.6% | CCOC(=O)/C(=C/c1ccccc1Cl)CSCC(NC(C)=O)C(=O)O (centres unmarked) [INF85] | > 100 µM |
| < 10% | O=C(O)/C(=C/c1ccccc1Cl)CSC1CCCCC1 [INF86, (Z)-3-(2-chlorophenyl)-2-((cyclohexylthio)methyl)acrylic acid] | > 100 µM |
| < 10% | CCOC(=O)C(CSC1CCCCC1)Cc1ccccc1Cl (centres unmarked) [INF110, ethyl 2-(2-chlorobenzyl)-3-(cyclohexylthio)propanoate] | 66 ± 1.4 µM |
| < 10% | CCOC(=O)C(Cc1ccccc1Cl)CS(=O)(=O)C1CCCCC1 (centres unmarked) [INF111, ethyl 2-(2-chlorobenzyl)-3-(cyclohexylsulphonyl)propanoate] | 98.1 ± 4.8 µM |
| 13.8 ± 7.1% | CCOC(=O)C1CCN(C(=O)/C(=C/c2ccccc2Cl)CSc2ccccc2)CC1 [INF180, ethyl (Z)-1-(3-(2-chlorophenyl)-2-((phenylthio)methyl)acryloyl)piperidine-4-carboxylate] | > 100 µM |
| < 10% | CCOC(=O)C1CCN(C(=O)C(CSc2ccccc2)Cc2ccccc2Cl)CC1 (centres unmarked) [INF186, ethyl 1-(2-(2-chlorobenzyl)-3-(phenylthio)propanoyl)piperidine-4-carboxylate] | 94.6 ± 4 µM |
| < 10% | O=C(O)C1CCN(C(=O)/C(=C/c2ccccc2Cl)CSc2ccccc2)CC1 [INF187, (Z)-1-(3-(2-chlorophenyl)-2-((phenylthio)methyl)acryloyl)piperidine-4-carboxylic acid] | > 100 µM |
| 40.9 ± 1.2% | CCOC(=O)[C@@H]1CCCN(C(=O)/C(=C/c2ccccc2Cl)CSc2ccccc2)C1 [INF202, ethyl (R,Z)-1-(3-(2-chlorophenyl)-2-((phenylthio)methyl)acryloyl)piperidine-3-carboxylic acid] |  |
| 14.4 ± 4.3% | CCOC(=O)[C@H]1CCCN(C(=O)/C(=C/c2ccccc2Cl)CSc2ccccc2)C1 [INF203, ethyl (S,Z)-1-(3-(2-chlorophenyl)-2-((phenylthio)methyl)acryloyl)piperidine-3-carboxylate] |  |

| SMILES | inhibition at 10 µM (NLRP3 inflammasome) | IC50 at 72 h (Cytotoxicity (MTT assay)) |
| --- | --- | --- |
| CCOC(=O)C(CSCC(NC(=O)OC(C)(C)C)C(=O)OC)Cc1ccccc1Cl (centres unmarked) [INF55, ethyl 3-((2-((tert-butoxycarbonyl)amino)-3-methoxy-3-oxopropyl)thio)-2-(2-chlorobenzyl)propanoate] | < 10% | > 100 µM |
| CCOC(=O)C1CCCN(C(=O)/C(=C/c2cccc(Cl)c2)CSc2ccccc2)C1 (centres unmarked) [INF230, ethyl (Z)-1-(3-(3-chlorophenyl)-2-((phenylthio)methyl)acryloyl)piperidine-3-carboxylate] | 39 ± 15.4% |  |
| CCOC(=O)C1CCCN(C(=O)/C(=C/c2ccccc2[N+](=O)[O-])CSc2ccccc2)C1 (centres unmarked) [INF231, ethyl (Z)-1-(3-(2-nitrophenyl)-2-((phenylthio)methyl)acryloyl)piperidine-3-carboxylate] | 32.6 ± 19.8% |  |
